According to US10100282B2, “Differentiation of pluripotent cells” (FUJIFILM Cellular Dynamics, Inc., priority 2009, dated 2018):

B1: GCSF: granulocyte colony-stimulating factor (protein, UniProt P09919 31-207, looked up)
Granulocyte …: TPLGPASSLPQSFLLKCLEQVRKIQGDGAALQEKLVSECATYKLCHPEELVLLGHSLGIPWAPLSSCPSQALQLAGCLSQLHSGLFLYQGLLQALEGISPELGPTLDTLQLDVADFATTIWQQMEELGMAPALQPTQGAMPAFASAFQRRAGGVLVASHLQSFLEVSYRVLRHLAQP
B2: FLT-3: Flt3 ligand, the endogenous ligand for FLT3 (protein, UniProt P49771 27-235, looked up)
Fms-related tyrosine kinase 3 …: TQDCSFQHSPISSDFAVKIRELSDYLLQDYPVTVASNLQDEELCGGLWRLVLAQRWMERLKTVAGSKMQGLLERVNTEIHFVTKCAFQPPPSCLRFVQTNISRLLQETSEQLVALKPWITRQNFSRCLELQCQPDSSTLPPPWSPRPLEATAPTAPQPPLLLLLLLPVGLLLLAAAWCLHWQRTRRRTPRPGEQVPPVPSPQDLLLVEH

System: hESCs
Assay: Cytokine matrix: serum-free EB hematopoietic differentiation, surface markers by flow cytometry
Type: cell-based, human
Method: Cells were collected from each well/condition and washed once with media. The cell pellet was digested using TrypLE™ or 0.5% trypsin for 5-10 minutes in a 37° C. incubator followed by washes with media and passage through a 70-μm cell strainer. […] Non-viable cells were excluded with 7-aminoactinomycin D (7-AAD, BD Biosciences). Live cell analysis was performed on a FACSCalibur™ or Accuri flow cytometer and Cell Quest software. hESCs adapted to feeder free growth on matrigel maintained using mTESR were preconditioned for three days in the presence of X-vivo-15 containing 0.1 ng/ml TGF-β and 20 ng/ml FGF-2. Cells were harvested using TrypLE for 6 minutes at 37 C. TrypLE™ was neutralized using EB basal media containing 1 μM ROCK inhibitor (H-1152), Soybean trypsin inhibitor (0.25 mg/ml). The cells were washed once in EB basal media containing 1 μM ROCK inhibitor and soybean trypsin inhibitor (0.25 mg/ml). The cells were plated in low attachment plates in EB basal media containing 1 μM ROCK inhibitor and soybean trypsin inhibitor (0.25 mg/ml). The media was changed the next day to EB basal media containing different cytokine formulations. […] The cytokine combinations used are listed below in Table 3. The EB cultures were half fed with fresh differentiation media every two days. The EB cultures were harvested on day 8, 12 and 17 of differentiation. The EB cultures were harvested by spinning down all the cells and digesting the EBs with TrypLE™ or 0.5% trypsin. The phenotype of the progenitor cell types was analyzed by flow cytometry and the cells were plated in methylcellulose media for CFU assays. “FLT3” refers to the Flt3 ligand below.

Row | Molecule | CD31 expressing cells (DAY 8, factor ABSENT) | CD34 expressing cells (DAY 8, factor ABSENT) | CD43 expressing cells (DAY 8, factor ABSENT) | CD45 expressing cells (DAY 8, factor ABSENT) | FLK-1 expressing cells (DAY 8, factor ABSENT) | CD31 expressing cells (DAY 8, factor PRESENT) | CD34 expressing cells (DAY 8, factor PRESENT) | CD43 expressing cells (DAY 8, factor PRESENT) | CD45 expressing cells (DAY 8, factor PRESENT) | FLK-1 expressing cells (DAY 8, factor PRESENT) | CD31 expressing cells (DAY 12, factor ABSENT) | CD34 expressing cells (DAY 12, factor ABSENT) | CD43 expressing cells (DAY 12, factor ABSENT) | CD45 expressing cells (DAY 12, factor ABSENT) | FLK-1 expressing cells (DAY 12, factor ABSENT) | CD31 expressing cells (DAY 12, factor PRESENT) | CD34 expressing cells (DAY 12, factor PRESENT) | CD43 expressing cells (DAY 12, factor PRESENT) | CD45 expressing cells (DAY 12, factor PRESENT) | FLK-1 expressing cells (DAY 12, factor PRESENT) | other results
1 | EPO: Erythropoietin | 0.8% | 1.2% | 1.0% | 0.2% | 2.2% | 0.7% | 1.1% | 0.8% | 0.2% | 1.7% | 2.2% | 2.4% | 2.1% | 2.6% | 0.8% | 1.8% | 2.0% | 2.4% | 1.5% | 0.2% | CD31 expressing cells (DAY 17, factor ABSENT): 4.6%; CD34 expressing cells (DAY 17, factor ABSENT): 2.5%; CD43 expressing cells (DAY 17, factor ABSENT): 5.0%; CD45 expressing cells (DAY 17, factor ABSENT): 4.8%; FLK-1 expressing cells (DAY 17, factor ABSENT): 1.6%; CD31 expressing cells (DAY 17, factor PRESENT): 8.8%; CD34 expressing cells (DAY 17, factor PRESENT): 2.4%; CD43 expressing cells (DAY 17, factor PRESENT): 9.1%; CD45 expressing cells (DAY 17, factor PRESENT): 8.9%; FLK-1 expressing cells (DAY 17, factor PRESENT): 2.1%
2 | GMCSF: Granulocyte-macrophage colony-stimulating factor | 0.4% | 1.0% | 0.3% | 0.2% | 2.2% | 1.1% | 1.3% | 1.4% | 0.2% | 1.7% | 1.5% | 1.0% | 1.4% | 1.3% | 0.6% | 2.4% | 2.4% | 3.0% | 2.6% | 0.4% | CD31 expressing cells (DAY 17, factor ABSENT): 1.6%; CD34 expressing cells (DAY 17, factor ABSENT): 2.1%; CD43 expressing cells (DAY 17, factor ABSENT): 1.4%; CD45 expressing cells (DAY 17, factor ABSENT): 0.9%; FLK-1 expressing cells (DAY 17, factor ABSENT): 1.4%; CD31 expressing cells (DAY 17, factor PRESENT): 11.3%; CD34 expressing cells (DAY 17, factor PRESENT): 2.8%; CD43 expressing cells (DAY 17, factor PRESENT): 12.1%; CD45 expressing cells (DAY 17, factor PRESENT): 12.3%; FLK-1 expressing cells (DAY 17, factor PRESENT): 2.3%; role during EB differentiation (serum free hematopoietic differentiation, days 8, 12, 17): play a role during later stages of EB differentiation
3 | IL6: Interleukin-6, a pro-inflammatory cytokine | 0.8% | 0.9% | 0.8% | 0.2% | 1.2% | 0.8% | 1.4% | 1.0% | 0.2% | 2.6% | 1.4% | 1.7% | 1.2% | 1.5% | 0.5% | 2.5% | 2.6% | 3.2% | 2.4% | 0.5% | CD31 expressing cells (DAY 17, factor ABSENT): 3.8%; CD34 expressing cells (DAY 17, factor ABSENT): 1.8%; CD43 expressing cells (DAY 17, factor ABSENT): 4.1%; CD45 expressing cells (DAY 17, factor ABSENT): 4.1%; FLK-1 expressing cells (DAY 17, factor ABSENT): 1.1%; CD31 expressing cells (DAY 17, factor PRESENT): 9.4%; CD34 expressing cells (DAY 17, factor PRESENT): 3.0%; CD43 expressing cells (DAY 17, factor PRESENT): 9.9%; CD45 expressing cells (DAY 17, factor PRESENT): 9.6%; FLK-1 expressing cells (DAY 17, factor PRESENT): 2.5%
4 | SCF: Stem cell factor, a cytokine which binds CD117 (c-Kit) | 0.7% | 0.8% | 0.8% | 0.2% | 1.9% | 0.9% | 1.5% | 1.0% | 0.2% | 2.0% | 1.3% | 1.7% | 1.2% | 1.5% | 0.3% | 2.6% | 2.6% | 3.2% | 2.4% | 0.6% | CD31 expressing cells (DAY 17, factor ABSENT): 3.9%; CD34 expressing cells (DAY 17, factor ABSENT): 2.3%; CD43 expressing cells (DAY 17, factor ABSENT): 4.1%; CD45 expressing cells (DAY 17, factor ABSENT): 4.0%; FLK-1 expressing cells (DAY 17, factor ABSENT): 1.4%; CD31 expressing cells (DAY 17, factor PRESENT): 9.3%; CD34 expressing cells (DAY 17, factor PRESENT): 2.6%; CD43 expressing cells (DAY 17, factor PRESENT): 9.8%; CD45 expressing cells (DAY 17, factor PRESENT): 9.6%; FLK-1 expressing cells (DAY 17, factor PRESENT): 2.2%
5 | TPO: Thrombopoietin, a glycoprotein hormone | 0.8% | 1.0% | 1.0% | 0.2% | 1.9% | 0.8% | 1.3% | 0.8% | 0.2% | 1.9% | 2.3% | 2.2% | 2.2% | 2.6% | 0.7% | 1.7% | 2.2% | 2.3% | 1.5% | 0.3% | CD31 expressing cells (DAY 17, factor ABSENT): 4.8%; CD34 expressing cells (DAY 17, factor ABSENT): 2.5%; CD43 expressing cells (DAY 17, factor ABSENT): 4.8%; CD45 expressing cells (DAY 17, factor ABSENT): 4.9%; FLK-1 expressing cells (DAY 17, factor ABSENT): 1.7%; CD31 expressing cells (DAY 17, factor PRESENT): 8.6%; CD34 expressing cells (DAY 17, factor PRESENT): 2.4%; CD43 expressing cells (DAY 17, factor PRESENT): 9.2%; CD45 expressing cells (DAY 17, factor PRESENT): 8.8%; FLK-1 expressing cells (DAY 17, factor PRESENT): 2.0%
6 | B1 | 0.8% | 1.2% | 1.0% | 0.2% | 2.2% | 0.7% | 1.1% | 0.8% | 0.2% | 1.7% | 2.2% | 2.4% | 2.3% | 2.6% | 0.7% | 1.8% | 2.0% | 2.3% | 1.5% | 0.4% | CD31 expressing cells (DAY 17, factor ABSENT): 4.8%; CD34 expressing cells (DAY 17, factor ABSENT): 2.7%; CD43 expressing cells (DAY 17, factor ABSENT): 4.9%; CD45 expressing cells (DAY 17, factor ABSENT): 4.9%; FLK-1 expressing cells (DAY 17, factor ABSENT): 1.6%; CD31 expressing cells (DAY 17, factor PRESENT): 8.6%; CD34 expressing cells (DAY 17, factor PRESENT): 2.2%; CD43 expressing cells (DAY 17, factor PRESENT): 9.1%; CD45 expressing cells (DAY 17, factor PRESENT): 8.8%; FLK-1 expressing cells (DAY 17, factor PRESENT): 2.1%
7 | B2 | 0.5% | 0.9% | 0.3% | 0.2% | 1.6% | 1.0% | 1.4% | 1.4% | 0.2% | 2.2% | 1.5% | 1.7% | 1.4% | 1.2% | 0.5% | 2.4% | 2.6% | 3.0% | 2.7% | 0.5% | CD31 expressing cells (DAY 17, factor ABSENT): 1.4%; CD34 expressing cells (DAY 17, factor ABSENT): 2.2%; CD43 expressing cells (DAY 17, factor ABSENT): 1.1%; CD45 expressing cells (DAY 17, factor ABSENT): 0.9%; FLK-1 expressing cells (DAY 17, factor ABSENT): 1.3%; CD31 expressing cells (DAY 17, factor PRESENT): 11.5%; CD34 expressing cells (DAY 17, factor PRESENT): 2.6%; CD43 expressing cells (DAY 17, factor PRESENT): 12.4%; CD45 expressing cells (DAY 17, factor PRESENT): 12.3%; FLK-1 expressing cells (DAY 17, factor PRESENT): 2.4%
